# Test results from patent US20240041042A1, “1-(PYRIDYL)-5-AZINYLPYRAZOLE DERIVATIVES, AND THEIR USE FOR CONTROL OF UNDESIRED PLANT GROWTH” (Bayer Aktiengesellschaft, priority 2020, published 2024).
# Read-outs that look alike come from different tables or passages of the source.
# Legend:
# Format in all cases: in vivo
# [1] = test system: Alopecurus myosuroides (ALOMY); test: Pre-emergence herbicidal action against ALOMY; settings: scored visually after about 3 weeks, 100% = plants have died
# Procedure, shortened: (§1)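 Pre-emergence soil-surface spray, WP/EC formulation, 0.5% additive, 600 l/ha water, rates of 320 g/ha or lower. Greenhouse, ~3 wk. Visual score, % of untreated control (100% = plants dead, 0% = like control).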
# [2] = test system: Amaranthus retroflexus (AMARE); test: Pre-emergence herbicidal action against AMARE; settings: visual scoring after about 3 weeks vs untreated controls
# Procedure, shortened: as §1
# Avena fatua (AVEFA) [3] = test: Pre-emergence herbicidal action against AVEFA; settings: 320 g/ha, visual scoring after about 3 weeks vs untreated controls
# Procedure, shortened: as §1
# [4] = test system: Digitaria sanguinalis (DIGSA); test: Pre-emergence herbicidal action against DIGSA
# Description: Seeds of monocotyledonous and dicotyledonous weed plants and crop plants are placed in plastic or organic planting pots and covered with soil. The compounds of the invention, formulated in the form of wettable powders (WP) or as emulsion concentrates (EC), are then applied to the surface of the covering soil as aqueous suspension or emulsion with addition of 0.5% additive at a water application rate equivalent to 600 l/ha. After the treatment, the pots are placed in a greenhouse and kept under good growth conditions for the trial plants. After about 3 weeks, the effect of the preparations is scored visually in comparison with untreated controls as percentages. For example, 100% activity=the plants have died, 0% activity=like control plants.
# Tables A1 to A13 below show the effects of selected compounds of the general formula (I) on various harmful plants and at an application rate corresponding to 320 g/ha or lower, which were obtained by the experimental procedure mentioned above. The appendices “a”, “b” and “c” give differentiation by dosage used with otherwise the same harmful plants tested.
# [5] = test system: Echinochloa crus-galli (ECHCG); test: Pre-emergence herbicidal action against ECHCG; settings: dosage 320 g/ha
# Procedure, shortened: as §1
# Lolium rigidum (LOLRI) = test: Pre-emergence herbicidal action against LOLRI
# Procedure, shortened: as §1
# [6] = test system: Matricaria inodora (MATIN); test: Pre-emergence herbicidal action against MATIN
# Procedure, shortened: as §1
# [7] = test system: Pharbitis purpurea (PHBPU); test: Pre-emergence herbicidal action against PHBPU; settings: dosage 320 g/ha
# Procedure, shortened: as §1
# [8] = test system: Polygonum convolvulus (POLCO); test: Pre-emergence herbicidal action against POLCO
# Procedure, shortened: as §1
# Setaria viridis (SETVI) [9] = test: Pre-emergence herbicidal action against SETVI
# Procedure, shortened: as §1
# [10] = test system: Verconica persica (VERPE); test: Pre-emergence herbicidal action against VERPE; settings: dosage 320 g/ha
# Procedure, shortened: as §1
# Viola tricolor (VIOTR) [11] = test: Pre-emergence herbicidal action against VIOTR
# Procedure, shortened: as §1
# [12] = test system: Abutilon theophrasti (ABUTH); test: Post-emergence herbicidal action against ABUTH; settings: 80 g/ha, visual rating about 3 weeks after treatment vs untreated controls (100% = plants have died, 0% = like control plants)
# Procedure, shortened: (§2)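 Rates were 320 g/ha or below, applied as aqueous WP/EC spray with 0.5% additive (600 l/ha) onto one-leaf-stage plants. About 3 weeks later in the greenhouse, damage was scored visually against untreated plants on a 0–100% scale, where 100% means plants died.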
# [13] = test system: Alopecurus myosuroides (ALOMY); test: Post-emergence herbicidal action against ALOMY; settings: 80 g/ha, visual rating about 3 weeks after treatment vs untreated controls (100% = plants have died, 0% = like control plants)
# Procedure, shortened: as §2
# [14] = test system: Amaranthus retroflexus (AMARE); test: Post-emergence herbicidal action against AMARE; settings: 80 g/ha, visual rating about 3 weeks after treatment vs untreated controls (100% = plants have died, 0% = like control plants)
# Procedure, shortened: as §2
# Avena fatua (AVEFA) [15] = test: Post-emergence herbicidal action against AVEFA; settings: 80 g/ha, visual rating about 3 weeks after treatment
# Procedure, shortened: as §2
# [16] = test system: Digitaria sanguinalis (DIGSA); test: Post-emergence herbicidal action against DIGSA; settings: 80 g/ha, visual rating about 3 weeks after treatment
# Procedure, shortened: as §2
# [17] = test system: Pharbitis purpurea (PHBPU); test: Post-emergence herbicidal action against PHBPU; settings: dosage 80 g/ha
# Procedure, shortened: as §2
# [18] = test system: Polygonum convolvulus (POLCO); test: Post-emergence herbicidal action against POLCO; settings: dosage 80 g/ha
# Procedure, shortened: as §2
# [19] = test system: Verconica persica (VERPE); test: Post-emergence herbicidal action against VERPE; settings: dosage 80 g/ha
# Procedure, shortened: as §2
# Viola tricolor (VIOTR) [20] = test: Post-emergence herbicidal action against VIOTR; settings: 80 g/ha
# Procedure, shortened: as §2
# Oryza sativa (ORYSA) = settings: crop plant compatibility
# Procedure, shortened: (§3)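 One-leaf-stage crops (2–3 wk post-sowing, sandy loam, greenhouse) sprayed on green parts; 0.5% additive, 600 l/ha water. Rated by eye ~3 wk later, % vs untreated; suffixes a/b/c mark different dosages.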
# Zea mays (ZEAMX) = test system: Zea mays (ZEAMX)
# Procedure, shortened: as §3
# [21] = test system: Echinochloa crus-galli (ECHCG); test: Post-emergence herbicidal action against ECHCG; settings: dosage 80 g/ha
# Procedure, shortened: as §2
# Setaria viridis (SETVI) [22] = test: Post-emergence herbicidal action against SETVI; settings: dosage 80 g/ha
# Procedure, shortened: as §2
# [23] = 80 g/ha, visual scoring after about 3 weeks vs untreated controls
Compound,Pre-emergence action against ALOMY ([1]; 80 g/ha) [%],Pre-emergence action against ALOMY ([1]; 320 g/ha) [%],Pre-emergence action against AMARE in % ([2]; 80 g/ha) [%],Pre-emergence action against AMARE in % ([2]; 320 g/ha) [%],Pre-emergence action against AVEFA in % (Avena fatua (AVEFA) [3]) [%],"Pre-emergence action against DIGSA in % [4, 23] [%]",Pre-emergence action against DIGSA in % ([4]; dosage 320 g/ha) [%],Pre-emergence action against ECHCG in % [5] [%],Pre-emergence action against LOLRI in % (Lolium rigidum (LOLRI); dosage 320 g/ha) [%],Pre-emergence action against MATIN in % ([6]; dosage 320 g/ha) [%],Pre-emergence action against PHBPU in % [7] [%],Pre-emergence action against POLCO in % ([8]; dosage 80 g/ha) [%],Pre-emergence action against POLCO in % ([8]; dosage 320 g/ha) [%],Pre-emergence action against SETVI in % (Setaria viridis (SETVI) [9]; dosage 320 g/ha) [%],Pre-emergence action against VERPE in % [10] [%],"Pre-emergence action against VIOTR in % (Viola tricolor (VIOTR) [11]; 320 g/ha, Viola tricolor) [%]",Pre-emergence action against VIOTR in % (Viola tricolor (VIOTR) [11]; dosage 80 g/ha) [%],Post-emergence action against ABUTH in % [12] [%],Post-emergence action against ALOMY in % [13] [%],Post-emergence action against DIGSA in % [16] [%],further results
CCOC(=O)COc1nn(-c2ncccc2F)c(-c2ccc(F)nc2)c1C(F)(F)F [Example I-56],100,100,100,100,100,100,100,100,100,100,90,80,90,100,100,100,100,80,90,90,"Pre-emergence action against LOLRI in % (Lolium rigidum (LOLRI); dosage 80 g/ha): 100%; Post-emergence action against AMARE in % [14]: 80%; Post-emergence action against AVEFA in % (Avena fatua (AVEFA) [15]): 80%; Post-emergence action against PHBPU in % [17]: 80%; Post-emergence action against POLCO in % [18]: 80%; Post-emergence action against VERPE in % [19]: 80%; Post-emergence action against VIOTR in % (Viola tricolor (VIOTR) [20]): 80%; Post-emergence action against ORYSA in % (Oryza sativa (ORYSA); 20 g/ha, effect vs untreated controls): 0%; Post-emergence action against ORYSA in % (Oryza sativa (ORYSA); 80 g/ha, effect in comparison to untreated controls): 0%; Post-emergence action against ZEAMX in % (crop plant compatibility) (Zea mays (ZEAMX); 20 g/ha, ZEAMX, effect in comparison to untreated controls): 0%; Post-emergence action against ZEAMX in % (Zea mays (ZEAMX); crop plant compatibility, 80 g/ha, effect vs untreated controls): 0%"
CCOC(=O)COc1nn(-c2ncccc2F)c(-c2ccc(F)nc2)c1Cl [Example I-38],100,100,100,100,100,100,100,100,100,100,90,90,100,100,100,100,100,80,100,90,Pre-emergence action against MATIN in % ([6]; dosage 80 g/ha): 100%; Pre-emergence action against SETVI in % (Setaria viridis (SETVI) [9]; dosage 80 g/ha): 100%; Post-emergence action against ECHCG in % [21]: 90%; Post-emergence action against PHBPU in % [17]: 90%; Post-emergence action against POLCO in % [18]: 80%; Post-emergence action against SETVI in % (Setaria viridis (SETVI) [22]): 80%; Post-emergence action against VERPE in % [19]: 80%; Post-emergence action against VIOTR in % (Viola tricolor (VIOTR) [20]): 80%
